What all share (assay type): in vivo, mouse
Test [1] relates to Plin2+ periventricular glia. The test is described as follows: Periventricular Plin2+ and TAF-positive cells (lateral ventricle), HFD INK-ATTAC mice. The settings on record: AP20187 vs vehicle. The procedure: (§1) INK-ATTAC mice were injected intraperitoneally (i.p.) with AP20187 (10 mg/kg) or vehicle for 3 days every 2 weeks for a total of 8-10 weeks.
(§2) Paraffin sections were deparaffinized with Histoclear and hydrated in an ethanol gradient followed by water and PBS. Antigen was retrieved by incubation in 0.01M citrate buffer (pH 6.0) at 95° C. for 10 minutes. Slides were placed in blocking buffer (1:60 normal goat serum [S-1000, Vector Laboratories] in 0.1% BSA/PBS) for 60 minutes at room temperature. […] Primary antibodies used (Table 2) were diluted in blocking buffer and applied overnight at 4° C. The next day, slides were washed 3 times with PBS and incubated for 30 minutes with secondary goat, anti-rabbit antibody (1:200; Vector Laboratories #BA-1000) for TAF staining or for 60 minutes with secondary Alexa antibody (Table 1). For TAF staining, Fluorescein-Avidin in PBS (1:500; #A-2011, Vector Lab) was applied to each sample for 20 minutes. Slides were washed 3 times in PBS, which was followed by FISH for TAF detection. […]
A single, 3 μm-thick section per mouse was used for TAF staining, while for Dcx and Plin2 staining was performed on three 10 μm-thick sections 80 μm-apart. To quantify periventricular lipid accumulation 10-30 images in the periventricular region were taken using the DM5500 widefield fluorescence microscope from Leica with a 10× (for frequency of periventricular glia) or ×40 (for ALISE phenotype of ependymal cells) objective lens. Number of Plin2-positive cells (for frequency of ALISE-positive periventricular glia) or area of Plin2-positive vesicles (for ALISE phenotype of ependymal cells) was assessed using ImageJ software. For identity assessment of Plin2+ cells, 10 μm-thick sections were stained with combination of antibodies for Iba1 (secondary antibody conjugated with Alexa Fluor 488), Plin2 (secondary antibody conjugated with Alexa Fluor 594), and Vimentin (secondary antibody conjugated with Alexa Fluor 647) and quantified for frequency of Plin2+ astrocytes (Iba1−, Vim+) and microglia (Iba1+) in the periventricular region. […]

The test system of test [2] is senescent cells in cortex, cerebellum, and hippocampus. The test is described as follows: Senescence markers in cortex, cerebellum and hippocampus, INK-ATTAC mice. The settings on record: obese and lean INK-ATTAC mice with and without AP. The procedure: as §1
Total RNA was extracted from white adipose tissue and brain using Trizol (Life Technologies, Carlsbad, Calif.) and reverse transcribed to cDNA with a M-MLV Reverse Transcriptase kit (Life Technologies). Real-time PCR was performed in a 7500 Fast Real Time PCR System (Applied Biosystems, Foster City, Calif.) using TaqMan Fast Universal PCR Master Mix (Life Technologies) and predesigned primers and probes from Applied Biosystems (Assay ID: Mm00494449_m1 [CDKN2A]; Mm04205640_g1 [CDKN1A]; Mm00446191_m1 [IL6]). Target gene expression was expressed as 2-ΔΔCT by the comparative CT method and normalized to the expression of TATA-binding protein (TBP) (Assay ID: Mm01277042 ml [TBP]).
as §2, with “1).” for “1). For TAF staining, Fluorescein-Avidin in PBS (1:500; #A-2011, Vector Lab) was applied to each sample for 20 minutes. Slides were washed 3 times in PBS, which was followed by FISH for TAF detection.”
A single, 3 μm-thick section per mouse was used for TAF staining, while for Dcx and Plin2 staining was performed on three 10 μm-thick sections 80 μm-apart. To quantify periventricular lipid accumulation 10-30 images in the periventricular region were taken using the DM5500 widefield fluorescence microscope from Leica with a 10× (for frequency of periventricular glia) or ×40 (for ALISE phenotype of ependymal cells) objective lens. Number of Plin2-positive cells (for frequency of ALISE-positive periventricular glia) or area of Plin2-positive vesicles (for ALISE phenotype of ependymal cells) was assessed using ImageJ software. For identity assessment of Plin2+ cells, 10 μm-thick sections were stained with combination of antibodies for Iba1 (secondary antibody conjugated with Alexa Fluor 488), Plin2 (secondary antibody conjugated with Alexa Fluor 594), and Vimentin (secondary antibody conjugated with Alexa Fluor 647) and quantified for frequency of Plin2+ astrocytes (Iba1−, Vim+) and microglia (Iba1+) in the periventricular region. […] For TAF quantification in depth Z stacking was used (images were captured as stacks separated by 0.4 μm with ×63 objective) followed by ImageJ analysis.

Test [3] has as its system SASP factors. The test is described as follows: Circulating cytokines in blood plasma, INK-ATTAC mice on HFD. Particulars: HFD-fed INK-ATTAC mice; AP vs vehicle. The procedure:
as §1
Serum levels of cytokines: Eotaxin, G-Csf, Tnf-α, Il-6, Ifn-γ, Il-1α, Il-1β, Il-17, Il-2, Kc/Cxcl1, Mcp-1, M-Csf, Mig, Mip-1α, and Mip-1β were determined using a Multiplexing LASER Bead Assay (Mouse Cytokine Array/Chemokine Array 31-Plex (MD31), Eve Technologies; Canada). Blood was withdrawn from mice by punctuation of the sub-mandibular vein at the day of dissection before an animal was sacrificed. 50 μL of serum were shipped to Eve Technologies on dry ice. Due to high variability of data an unbiased elimination of outliers was performed using ROUT's method (Graphpad 7 Prism). The same panel was used to detect SASP in MAF and 50 μl of media was shipped to Eve Technologies on dry ice.

Results on 1 compound are retold here after US20210379068A1, “METHODS AND MATERIALS FOR TREATING NEUROPSYCHIATRIC DISORDERS” (Mayo Foundation for Medical Education and Research, priority 2018, published 2021).

Regarding `CC[C@H](C(=O)N1CCCC[C@H]1C(=O)O[C@H](CCc1ccc(OC)c(OC)c1)c1cccc(OCC(=O)NCC(CNC(=O)COc2cccc([C@@H](CCc3ccc(OC)c(OC)c3)OC(=O)[C@@H]3CCCCN3C(=O)[C@@H](CC)c3cc(OC)c(OC)c(OC)c3)c2)CN(C)C)c1)c1cc(OC)c(OC)c(OC)c1` [AP], in test [1], the “Plin2+ cells (cells containing lipid droplets) in the periventricular area” value is on record as “significant reduction” and the “cells bearing senescent markers (NeuN negative, TAF-positive cells) in the periventricular region” value is “significant reduction”. Moreover, the “Plin2+ cells (cells containing lipid droplets) in the periventricular area” value in test [1] (listed as AP20187) is reported as “reduced lipid droplets”. For the same compound, in test [2], the “TAF in cortex, cerebellum, hippocampus” value is reported as “No differences”; the “p16 in cortex, cerebellum, hippocampus” value is recorded as “No differences”; the “p21 in cortex, cerebellum, hippocampus” value is recorded as “No differences”; the “γ-H2A.X in cortex, cerebellum, hippocampus” value is “No differences”. Besides, in test [3], the “G-Csf in the bloodstream” value was “down-regulated”, the “Il-1β in the bloodstream” value is given as “down-regulated”, the “Kc/Cxcl1 in the bloodstream” value was “down-regulated” and the “Mcp-1 in the bloodstream” value is reported as “down-regulated”. In addition, in test [3], the “Mig in the bloodstream” value was “down-regulated” and the “Tnf-α in the bloodstream” value is on record as “down-regulated”.
